{"source": "patent US20050025805A1", "about": "“Osmium compounds for reduction of adverse inflammation” (priority 2003, published 2005)", "key": {"[1]": {"test_system": "Phorbol Myristate Stimulated Murine Peritoneal Macrophages", "details": "cited from earlier work"}, "[2]": {"test": "Pulse radiolysis: catalysis of the decay (dismutation) of O2.-, absorbance at 260 nm", "type": "biochemical", "details": "for kobs at the plateau: 10 μM O2.-, pH 7.25; for kcat at the plateau after repetitive pulsing: 20 mM formate, 2.4 mM phosphate pH 7.25; for kcat (in words): oxygenated solution", "description": "Pulse radiolysis experiments were carried out with a Varian (Palo Alto, Calif.) 7715 linear accelerator with 5 MeV electron pulses of 1.5 μs duration. The light source of the analyzing beam was a 200 W xenon lamp. The absorption spectra were measured were at room temperature in a 2 cm Spectrosil® cell, the beam passing the cell three times, for an optical path length of 6.1 cm. The dose was 6-19.4 Gy per pulse, as determined from the absorption of the superoxide ion, using G(O2.^−)=6.1 and ε260=1940 M^−1cm^−1, in pH 7.4 O2 saturated 2.4 mM phosphate buffer, containing 20 mM formate.\nOsO4 (or its product) catalyzes the decay of the superoxide ion radical. The superoxide ion radical (pKa=4.8) was formed by pulse-irradiation of oxygenated pH 7.2-7.4 buffer solutions. The solutions contained either 0.02 M formate and 2.4 mM phosphate, or 0.2 M 2-PrOH and 12 mM phosphate. In some experiment 5-10 μM diethylenetriaminepentaacetic acid (DTPA) or catalase (75 u/ml) were added. In the presence of either formate or 2-PrOH. All of the primary radicals formed by the radiation (Equation 3) are converted into O2.^− via Reactions 4-7 when formate is added, and by Reactions 4, 8-10, when 2-PrOH is added. In Equation 3 the values in parentheses are the radiation-chemical yields of the species, defined as the number of species produced per 100 eV of absorbed energy γ."}, "[3]": {"details": "Neta et al. J. Phys. Chem. 1980; cited from earlier work"}, "[4]": {"test": "Pulse radiolysis: decay of carbonate radical CO3.-, absorbance at 600 nm", "type": "biochemical", "details": "0.6 M carbonate", "description": "Methods. Pulse radiolysis experiments were carried out using a 5-MeV Varian 7715 linear accelerator (0.05-1.5 μs electron pulses, 200 mA current). All measurements were performed at room temperature in a 2-cm spectrosil cell, with three light passes (optical path length 6.1 cm). The formation and decay kinetics of the CO3− radical were tracked by measuring its absorption at 600 nm using ε600=1860 M^−1cm^−1.\nCarbonate radical was generated by irradiating N2O-saturated (˜25 mM) aqueous solutions containing 0.1-0.6 M sodium carbonate (pKa(HCO3^−)=10, I=0.5 M) at pH 10.0 by reaction sequence 18-20 (the species radiation yields are in parentheses): […]"}}, "note": "Where two headings read alike, the source gives them in different places.", "data": [{"molecule": "CC(=O)OC[C@H]1O[C@@H]([S-])[C@H](OC(C)=O)[C@@H](OC(C)=O)[C@@H]1OC(C)=O.CCP(CC)CC.[Au+]", "note": "[2,3,4,6-tetra-O-acetyl-1-thio-β-D-glucopyranosato-S (triethylphosphine)]", "values": [{"measurement": "inhibition of the release of O2.- (in words)", "setting": "[1]; 10 μM concentration", "result": "completely inhibited"}]}, {"molecule": "[Cl][Os]([Cl])[Cl]", "note": "[OsCl3, OsCl3.6H2O]", "values": [{"measurement": "kobs at the plateau", "setting": "[2]; 1.65 μM OsCl3, after 40 pulses", "result": 1700, "unit": "s⁻¹"}, {"measurement": "kcat at the plateau after repetitive pulsing", "setting": "[2]", "result": "1.1e+09", "unit": "M⁻¹ s⁻¹"}, {"measurement": "effect on rate of decay of O2.- in the first pulse", "setting": "[2]; 1.65 or 3.3 μM OsCl3, first pulse", "result": "only a minor increase"}, {"measurement": "kobs at the plateau", "setting": "[2]; 3.3 OsCl3, after 40 pulses", "result": 3400, "unit": "s⁻¹"}]}, {"molecule": "[Os+2].c1ccc(-c2ccccn2)nc1.c1ccc(-c2ccccn2)nc1.c1ccc(-c2ccccn2)nc1", "note": "[Os(bpy)3^2+]", "values": [{"measurement": "kcat (in words)", "setting": "[2]", "result": "too low to be measured"}]}, {"molecule": "[O-][n+]1ccccc1", "note": "[pyridine N-oxide]", "values": [{"measurement": "k, reaction with .OH radicals", "setting": "[3]", "result": "3e+09", "unit": "M⁻¹ s⁻¹"}]}, {"molecule": "CN(C)CCCN1CCC2(C[CH2][Ge]([CH3])([CH3])[CH2]C2)C1", "note": "[(N,N-dimethylaminopropyl)-2-aza-8,8-dimethyl-8-germanospiro-(4,5)-decane]", "values": [{"measurement": "inhibition of the release of O2.- (in words)", "setting": "[1]; 10 μM concentration", "result": "completely inhibited"}]}, {"molecule": "K2OsCl6.2H2O Cl6 [OsCl6^2−]", "values": [{"measurement": "kcat at the plateau after repetitive pulsing", "setting": "[2]", "result": "4e+08", "unit": "M⁻¹ s⁻¹"}]}, {"molecule": "Cc1ccc[n+]([O-])c1", "note": "[3-picoline N-oxide]", "values": [{"measurement": "k, reaction with .OH radicals", "setting": "[3]", "result": "3e+09", "unit": "M⁻¹ s⁻¹"}]}, {"molecule": "Cc1cc[n+]([O-])cc1", "note": "[4-picoline N-oxide]", "values": [{"measurement": "k, reaction with .OH radicals", "setting": "[3]", "result": "3e+09", "unit": "M⁻¹ s⁻¹"}, {"measurement": "shortening of the half-life of CO3.-", "setting": "[4]; 2 mM, 3 μM CO3.-", "result": "about 50%"}, {"measurement": "rate constant of the reaction with CO3.-", "setting": "[4]; pH 10.0", "result": "about 3×10^4 M^−1s^−1"}]}, {"molecule": "bis(bipyridyl) dichloroosmium(II)", "values": [{"measurement": "% inhibition of O2.- release", "setting": "[1]; 10 μM concentration", "result": "2±2", "unit": "%"}]}, {"molecule": "octamminodinitrato-(μ-nitrido)-diosmium trinitrate", "values": [{"measurement": "% inhibition of O2.- release", "setting": "[1]; 100 μM concentration", "result": "29±6", "unit": "%"}]}, {"molecule": "Cc1cccc[n+]1[O-]", "note": "[2-picoline N-oxide]", "values": [{"measurement": "k, reaction with .OH radicals", "setting": "[3]", "result": "3e+09", "unit": "M⁻¹ s⁻¹"}]}, {"molecule": "[Cl][Os][Cl].c1cnc2c(c1)ccc1cccnc12.c1cnc2c(c1)ccc1cccnc12", "note": "[dichlorobis(phenathroline) osmium(II)]", "values": [{"measurement": "% inhibition of O2.- release", "setting": "[1]; 10 μM concentration", "result": "24±4", "unit": "%"}]}, {"molecule": "Cc1ccnc(-c2cc(C)ccn2)c1.Cc1ccnc(-c2cc(C)ccn2)c1.Cc1ccnc(-c2cc(C)ccn2)c1.[Os+2]", "note": "[Os(dimebpy)^2+]", "values": [{"measurement": "kcat (in words)", "setting": "[2]", "result": "too low to be measured"}]}]}
